Data taken from patent publication US20120087864A1, “METHOD FOR DIAGNOSING AND/OR EVALUATING RETINAL DISEASE” (R-TECH UENO, LTD., priority 2010, published 2012).
Where “and” joins values, the source holds several entries; their conditions need not be identical. Identical values can stand only once. Marks after values point to notes of the source that are not given here.

Assays:
Assay type in all cases: in vivo, human
[1] = system: patient with retinal pigmentosa; test: Intraocular pressure (IOP) over the 24-week measurement period; conditions: one drop and two drop groups
[2] = system: patient with retinal pigmentosa; test: Humphrey visual field test (SITA-Standard, central 10-2) retinal sensitivity (MD value), 24-week placebo-controlled clinical test; conditions: 0.15% solution twice a day; for change value of Humphrey central 10-2 retina sensitivity (MD value): change from before treatment
Experimental: (§1) One drop or two drops of isopropyl unoprostone 0.15 w/v % ophthalmic solution per one time was administered to each eye of patient with retinal pigmentosa daily for 24 weeks, and the following items were examined. 112 patients participated this test.
Change in retinal sensitivity through Humphrey visual field test (SITA-Standard, 10-2)
(§2) The above ophthalmic solution of Formulation Example 1 was used as the test drug.
(§3) (1) Dosage regimen: Instillation twice* a day, one drop of a first solution was instilled at the time of first instillation and, after 5 minute, one drop of a second solution was instilled into both eyes.
Since subjective symptoms depend on one eye having better visual function than the other, when both eyes satisfy the all selection criteria, the eye having better desimal visual acuity was adopted as the eye for evaluation of efficacy. When both eyes have the same desimal visual acuity, right eye was adopted as the eye for evaluation of efficacy
Between-group comparison of the average of Humphrey central 10-2 retina sensitivity (MD value) was made every measurement time point.
Between-group comparison of the change value of Humphrey central 10-2 retina sensitivity (MD value) was made every measurement time point.

[3] = system: patient with retinal pigmentosa; test: Humphrey visual field test, retinal sensitivity of central 2 degrees (4 points); conditions: 0.15% solution twice a day
Experimental: as §1
Change in retinal sensitivity of central 2 degrees (4 points) through Humphrey visual field test
as §2, §3
Between-group comparison of the change value of Humphrey central 4 points retinal sensitivity was made every measurement time point.

[4] = system: patient with retinal pigmentosa; test: NEI VFQ-25 (Compo 8) vision-related QOL questionnaire; conditions: 0.15% solution twice a day, after 24 weeks minus 0 week
Experimental: as §1
Change in The 25-Item National Eye Institute Visual Function Questionnaire (NEI VFQ-25) Compo 8:
Original NEI VFQ-25 (The 25-item National Eye Institute Visual Function Questionnaire) for evaluation of vision-related QOL of a patient is constituted from visual functions in various living scenes, and 12 subscales (questions of 25 items) for measurement of the degree of restrictions of vision-related physical, mental and social living scenes. In the present test, a questionnaire of Compo 8 constituted from 8 subscales with exception of general health, driving, peripheral vision and ocular pain among the subscales was used. At the time of completion of the pre-observation period (0 week) and completion of the treatment (24 weeks), a change value of score (the value after 24 weeks minus the value at 0 week) was evaluated.

[5] = system: patient with retinal pigmentosa; test: MP-1 microperimeter retinal sensitivity of central 2 degrees (4 points); conditions: 0.15% solution twice a day; for average retinal sensitivity by MP-1 in central 2 degrees (4 points), change value: change from 0 week
Experimental: as §1
Using an combined equipment having a retinal camera and an automatic perimeter, retinal sensitivity of measurement points set preliminarily on the eyeground retina was automatically measured. The feature of MP-1 is that tracking can be automatically performed according to the eye movement, and retinal sensitivity of a local part of the eyeground can be accurately measured by correcting a gap detected during a test. Also, it is possible to serially measure retinal sensitivity at the same site of the eyeground since a test can be performed at the same measurement point of retina as that of the previous test.
Change in retinal sensitivity of central 2 degrees (4 points) through MP-1 microperimeter
The value of the average retinal sensitivity by MP-1 in central 2 degrees (4 points) changed from the value at the time of completion of the pre-observation period (0 week) at each measurement time point (time of hospital visiting of subject) was calculated in each eye.
The retinal sensitivity by MP-1 central 2 degrees (4 points) was measured at a pre-observation period, after 4 weeks, after 8 weeks, after 16 weeks and after 24 weeks. It is estimated that variation (error) due to seasonal variation during measuring for 24 weeks may arise. For the purpose of absolutely evaluating the effect of the drug, in order to grasp an overview including negation of both improvement and aggravation, between-group comparison was made by adding up of a difference (change value) with the pre-observation period in four measurements.

[6] = one drop per time group, after 4 weeks
[7] = one drop per time group, after 8 weeks
[8] = one drop per time group, after 16 weeks
[9] = one drop per time group, after 24 weeks
[10] = two drops per time group, after 4 weeks
[11] = two drops per time group, after 8 weeks
[12] = two drops per time group, after 16 weeks
[13] = two drops per time group, after 24 weeks

Structure (SMILES): CCCCCCCC(=O)CC[C@@H]1[C@@H](C/C=C\CCCC(=O)OC(C)C)[C@@H](O)C[C@H]1O [isopropyl unoprostone, (+)-isopropyl (Z)-7-[(1R,2R,3R,5S)-3,5-dihydroxy-2-(3-oxodecyl)cyclopentyl]hept-5-enoate]
- decrease of intraocular pressure (IOP) as compared to the placebo [1]: greater decrease in IOP
- average of Humphrey central 10-2 retina sensitivity (MD value) ([2]; one drop per time group, 0 week (before treatment)): −14.116 dB
- average of Humphrey central 10-2 retina sensitivity (MD value) [2, 6]: −13.952 dB
- average of Humphrey central 10-2 retina sensitivity (MD value) [2, 7]: −14.074 dB
- change value of Humphrey central 10-2 retina sensitivity (MD value) [2, 7]: 0.042 dB
- average of Humphrey central 10-2 retina sensitivity (MD value) [2, 8]: −13.768 dB
- change value of Humphrey central 10-2 retina sensitivity (MD value) [2, 8]: 0.136 dB
- average of Humphrey central 10-2 retina sensitivity (MD value) [2, 9]: −13.699 dB
- change value of Humphrey central 10-2 retina sensitivity (MD value) [2, 9]: 0.417 dB
- average of Humphrey central 10-2 retina sensitivity (MD value) ([2]; two drops per time group, 0 week (before treatment)): −18.376 dB
- average of Humphrey central 10-2 retina sensitivity (MD value) [2, 10]: −17.671† dB
- change value of Humphrey central 10-2 retina sensitivity (MD value) [2, 10]: 0.831 dB
- average of Humphrey central 10-2 retina sensitivity (MD value) [2, 11]: −17.810 dB
- change value of Humphrey central 10-2 retina sensitivity (MD value) [2, 11]: 0.696* dB
- average of Humphrey central 10-2 retina sensitivity (MD value) [2, 12]: −17.341† dB
- change value of Humphrey central 10-2 retina sensitivity (MD value) [2, 12]: 0.777 dB
- average of Humphrey central 10-2 retina sensitivity (MD value) [2, 13]: −17.411† dB
- change value of Humphrey central 10-2 retina sensitivity (MD value) [2, 13]: 0.891 dB
- change value of Humphrey central 4 points retinal sensitivity [3, 6]: −0.178
- change value of Humphrey central 4 points retinal sensitivity [3, 7]: 0.158
- change value of Humphrey central 4 points retinal sensitivity [3, 8]: 0.336
- change value of Humphrey central 4 points retinal sensitivity [3, 9]: 0.334
- change value of Humphrey central 4 points retinal sensitivity [3, 10]: 0.714
- change value of Humphrey central 4 points retinal sensitivity [3, 11]: 0.821
- change value of Humphrey central 4 points retinal sensitivity [3, 12]: 1.253*^†1
- change value of Humphrey central 4 points retinal sensitivity [3, 13]: 2.009 and 2.009*^†1†2
- change value of VFQ-25 subscale "vision-related social function" ([4]; one drop per time group): −2.3
- change value of VFQ-25 summary score ([4]; one drop per time group): −1.1
- change value of VFQ-25 subscale "vision-related social function" ([4]; two drops per time group): 6.6*^†
- change value of VFQ-25 summary score ([4]; two drops per time group): 2.69^†
- MP-1 central 2 degrees (4 points) average retinal sensitivity: aggravation by 4 dB or more, number of cases (%) [5, 9]: 6 (15.8%) cases (%)
- MP-1 central 2 degrees (4 points) average retinal sensitivity: improvement by 4 dB or more, number of cases (%) [5, 9]: 3 (7.9%) cases (%)
- MP-1 central 2 degrees (4 points) average retinal sensitivity: no change, number of cases (%) [5, 9]: 29 (76.3%) cases (%)
- average retinal sensitivity by MP-1 in central 2 degrees (4 points), change value [5, 10]: 0.5 dB
- average retinal sensitivity by MP-1 in central 2 degrees (4 points), change value [5, 11]: 1.013 dB
- average retinal sensitivity by MP-1 in central 2 degrees (4 points), change value [5, 12]: 0.713 dB
- MP-1 central 2 degrees (4 points) average retinal sensitivity: aggravation by 4 dB or more, number of cases (%) [5, 13]: 1 (2.6%) cases (%) and 1 (2.9%)* cases (%)
- MP-1 central 2 degrees (4 points) average retinal sensitivity: improvement by 4 dB or more, number of cases (%) [5, 13]: 6 (17.1%) cases (%)
- MP-1 central 2 degrees (4 points) average retinal sensitivity: no change, number of cases (%) [5, 13]: 28 (80.0%) cases (%)
- average retinal sensitivity by MP-1 in central 2 degrees (4 points), change value [5, 13]: 1.1^† dB
- average retinal sensitivity by MP-1 in central 2 degrees (4 points), comparison of change value ([5]; two drops per time group, change values of four measurements (4, 8, 16, 24 weeks) added up): 0.826* dB
